Data from patent US11795439B2, “Methods for reprogramming cells and uses thereof” (GENESIS TECHNOLOGIES LIMITED, priority 2009, dated 2023).

Tests used:
Format in all cases: cell-based, human
[1] = system: fibroblast cells within CDM; assay: Trans-differentiation of cells within CDM by cytochalasin B, VPA, 5-Azacytidine, immunohistochemistry; conditions: Day 14 CDM; cytochalasin B and NbActive medium only
Method: Fibroblast cells were cultured in DMEM medium in the presence of 10% FCS as described in Example I, followed by seeding onto 12-well plates pre-coated with laminin ([…]) at a concentration of 2×10^6 cells/ml in defined CDM Medium consisting of a 3:1 ratio of Dulbecco's modified Eagle medium (DMEM, high glucose (4.5 g/L) with L-glutamine and sodium pyruvate) and Ham's F-12 medium supplemented with the following components: EGF (4.2×10^−10M), bFGF (2.8×10^−10M), ITS (8.6×10^−5M), dexamethasone (1.0×10^−7M), L-ascorbic acid phosphate magnesium salt n-hydrate (3.2×10^−4M), L-3,3′,5-triiodothyronine (2.0×10^−10M), ethanolamine (10^−4M), GlutaMAX™ (4×10^−3M), glutathione (3.3×10^−6M), and 1% penicillin/streptomycin/amphotericin B. By culturing the fibroblast cells at hyperconfluent density in this completely chemically defined medium causes them to enter a high synthetic phase with a slow-down in proliferation, leading to the production of a living tissue equivalent (LTE) consisting of multiple layers of fibroblasts within de novo 3D extracellular matrix (CDM) that is completely synthesized by the fibroblasts themselves.
Day 14 CDM samples were treated with cytochalsin B (10 μg/ml, Calbiochem), with the concentration of cytochalsin B reduced from 10 μg/ml to 0 μg/ml (none) over 5 days while at the same time switching the medium from CDM Medium to NbActive medium. […]

fibroblast cells = assay: Immunohistochemistry (Cellomics) % Sox2 and nestin positive cells with or without cytochalasin B (Table 4); conditions: disrupting the cell cytoskeleton
Method: Cells were fixed with a 4% formaldehyde/PBS solution for 10 min at room temperature and subsequently permeabilized for 5 min with 0.1% Triton X-100™ in 4% formaldehyde/PBS. After two brief washes with PBS, unspecific antibody binding was blocked by a 30 min incubation with 5% normal goat serum in PBS. Then primary antibodies were added in 5% normal goat serum/PBS as follows: Mouse anti-Nestin (1:100, BD) as an […] present in neural stem cells and mouse anti-NCAM (1:100, Neuromics) as neuronal adhesion molecule. After a 2 h incubation the cells were washed 4 times for 5 min each with 0.1% Tween™/PBS. Appropriate fluorescence-tagged secondary antibody was used for visualization; Goat anti-mouse 546 (1:200, invitrogen) prepared in 5% normal goat serum/PBS was used. […] Fluorescence images were taken with a Cellomics™ ArrayScan HCS Reader microscopy system. To determine an estimate of the percentage of cells adopting neuronal or glial phenotypes, random fields were selected and for each field the total number of cells (as determined by counting Hoechst stained nuclei) and the total number of cells positive for neuronal or glial markers were determined.
Various combinations of neurogenic regulators and cytokines for epigenetic modifications were tested to ascertain their effect on reprogramming efficiency. […] Cells were then analyzed for neural stem cell markers. […]

HFFs = assay: Sox2 immunohistochemistry with or without Noggin; conditions: inhibiting the BMP signaling pathway
Method: This study was designed to evaluate the role of Noggin in the process of de-differentiation of HFFs towards NSLCs. HFFs were cultured and treated with cytochalasin B as described in Example III. After two days of treatment, cells were transfected by Nucleofection as described in Example II with the constructed vector Msi1/Ngn2. Briefly, after preparing the cells, they were mixed with 2 μg of total DNA (Msi1/Ngn2) and were co-transfect with MBD2 ([…]), by the Amaxa's Nucleofector™ according to the manufacturer's protocol. The samples were then transferred into a Laminin (10 μg/ml, Sigma) coated culture plate and cultured in the presence of Neural Proliferation Medium (NeuroCult™ proliferation Kit, StemCell Technologies) with recombinant hFGF (20 ng/ml, Peprotech), recombinant hEGF (20 ng/ml, Peprotech), and with or without the presence of Noggin (20 ng/ml, Peprotech). Samples were collected at different time points (1, 3, 4, 6, and 8 days) to analyze neuronal gene expression by RT-PCR and protein expression levels by immunohistochemistry.
Fluorescent imunohistochemical staining was performed on samples after 4 days of transfection as previously described in Example I. Transfected cells were stained and analyzed for expression of Sox2, the percentage of Sox2 was 33.3±1.00% in the presence of Noggin compared to 27.5±0.50% without the presence of noggin at day 4. […]

For `C=C1[C@@H](C)[C@H]2[C@H](Cc3ccccc3)NC(=O)[C@]23OC(=O)/C=C/[C@H](O)CCC[C@@H](C)C/C=C/[C@H]3[C@@H]1O` [Cytochalasin B], the βIII-tubulin positive cells [1] was “failed to detect” and the effect on reprogramming (fibroblast cells) was “significantly enhanced reprogramming, but had no reprogramming effect on its own”.

B1: Noggin: Noggin (20 ng/ml, Peprotech), inhibits the BMP signaling pathway (protein, UniProt Q13253 28-232, looked up)
Noggin: QHYLHIRPAPSDNLPLVDLIEHPDPIFDPKEKDLNETLLRSLLGGHYDPGFMATSPPEDRPGGGGGAAGGAEDLAELDQLLRQRPSGAMPSEIKGLEFSEGLAQGKKQRLSKKLRRKLQMWLWSQTFCPVLYAWNDLGSRFWPRYVKVGSCFSKRSCSVPEGMVCKPSKSVHLTVLRWRCQRRGGQRCGWIPIQYPIISECKCSC
In the case of B1, the effect on reprogramming (HFFs) is reported as “enhanced reprogramming, but had no reprogramming effect on its own”.
